From publication PMC10447463, “Data-mining unveils structure–property–activity correlation of viral infectivity enhancing self-assembling peptides” (Nature Communications, 2023)
Where two headings read alike, the source gives them in different places.

Experiments:
[1] = β-sheet content by ATR-FT-IR; format: physicochemical; conditions: Fig. S7 panel A; β-sheet content by ATR-FT-IR
Outline: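 To obtain β-sheet content, 1 mg/mL PNF solutions are freeze-dried and the powders recorded by ATR FT-IR at 2 cm^-1 resolution with 64 scans. Free monomer for CR is removed by 3 kDa MWCO centrifugation at 4 °C, and amines in filtrate and unfiltered material are detected with fluorescamine.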

[2] = tested on: HIV-1 infection of TZM-bl cells; assay: HIV-1 infectivity enhancement assay, β-galactosidase luminescence; format: cell-based; conditions: for Rel-EFC / Log10 Infection Rel EFC: 1.3 µM peptide; for Rel-EFC: infection relative to EF-C (QCKIKQIINMWQ = 1); for Log10 Infection Rel EFC: log10 of infection relative to EF-C; for Log Infectivity: Log10 infection relative to EF-C, TZM-bl cells, asymmetric std dev errors; for Log10 Infection Rel EF-C: HIV-1 infection of TZM-bl cells; for Log10 of Rel to EFC (Feb2021): Log10 of infection relative to EF-C, all peptides of FigS16; for Abs. Inf.: absolute infection signal, HIV-1 on TZM-bl cells, β-galactosidase luminescence; for Log10 Inf. rel. to EF-C: log10 of HIV-1 infection of TZM-bl cells relative to EF-C (EF-C = 0)
[3] = Zeta-potential measurement; format: physicochemical
Outline: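 PBS pH 7.4, 1 mg/mL peptide (DMSO stock), 1 d RT aggregation; diluted in 1 mM KCl pre-read; mobility → zeta (Smoluchowski); n = 3, 2 expts averaged.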

[4] = Turbidity, derived count rate of scattered light; format: physicochemical; conditions: for Count Rate / kcps: derived count rate of scattered light at 633 nm, 173°, from zeta-potential measurement, 0.1 mg/mL in 1 mM KCl after 1 d at 1 mg/mL in PBS, turbidity / microscopic aggregation, mean of triplicate
Outline: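 One-day room-temperature aggregation at 1 mg/mL in PBS (pH 7.4) preceded measurement; samples then went into 1 mM KCl. Triplicates per sample, two independent experiments averaged.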

[5] = Fig. S7 panel A (plotted against β-sheet content)
[6] = Log10 of infection rate relative to EF-C, Figure 3A source data
[7] = infection rate relative to EF-C, log10, data of Figure 2D
[8] = infection rate relative to EF-C, log10, source data of Figure 2C
[9] = zeta-potential of peptide, source data of Figure 2C
[10] = zeta-potential of the peptide assemblies, mean, Figure 3A source data
[11] = Log10 of derived count rate of scattered light (turbidity)
[12] = turbidity, Log10 of derived count rate of scattered light, Figure 3A source data
[13] = turbidity, log10 of derived count rate of scattered light
[14] = Fig. S7 panel B (plotted against CR), rounded to two decimals
[15] = logarithm of count rate in kcps
[16] = zeta potential of peptide assemblies
[17] = log10 of derived count rate of scattered light (turbidity)

Substance	b -sheet / % [1]	Rel-EFC [2]	Log10 Infection Rel EFC [2]	Log Infectivity [2, 5]	Log10 Infection Rel EF-C [2, 6]	Log10 Infection Rel EF-C [2, 7]	Log10 Infection Rel EF-C [2, 8]	Log10 of Rel to EFC (Feb2021) [2]	Abs. Inf. [2]	Log10 Inf. rel. to EF-C [2]	Zeta-Pot. [3]	Zeta-Potential / mV [3, 9]	Zeta-Potential / mV [3, 10]	Log10 Count Rate [4, 11]	Count Rate / kcps [4]	Log10 Count Rate [4, 12]	Log10 Count Rate [4, 13]	Log Infectivity [2, 14]	Zeta-Pot. [3, 16]	other results
NMWQKFKFQF	33.22%	0,27	-0,57	-0.5672	-0.57	-0.5672	-0.5672	-0.57	7323	-0.5672	9.56	10.63 mV	9.56 mV	4.148	14045 kcps	4.148	4.148	–	–	–
CKFKFQFNM	41%	1,24	0,09	0.09417	0.09	0.09417	0.09417	0.09	28183.33333	0.09417	15.13	14.97 mV	15.13 mV	3.347	2224 kcps	3.347	3.347	0.09	–	Log10 Count Rate [4, 15]: 3.347
SISISRRI	48.78%	0,03	-1,55	-1.548	-1.55	-1.548	-1.548	–	313.3	-1.548	-17	-9.316 mV	-17 mV	1.403	25 kcps	1.403	1.403	-1.55	–	–
RGEKIKIQINM	38.16%	0,24	-0,61	-0.6134	-0.61	-0.6134	-0.6134	-0.61	7838	-0.6134	15.3	16.35 mV	15.3 mV	2.774	595 kcps	2.774	2.774	-0.61	–	–
KIKQIINMWQ	40.68%	0,35	-0,46	-0.4604	-0.46	-0.4604	-0.4604	-0.46	9363	-0.4604	15.37	16.2 mV	15.37 mV	2.789	616 kcps	2.789	2.789	-0.46	–	Log10 Count Rate [4, 15]: 2.789
CKFC	38.87%	0,01	-1,96	-1.959	-1.96	-1.959	-1.959	–	240	-1.959	-19.89	-2.077 mV	-19.89 mV	2.371	235 kcps	2.371	2.371	-1.96	–	–
KIKIQINMAQ	45.78%	0,21	-0,67	-0.6722	-0.67	-0.6722	-0.6722	-0.67	–	-0.6722	–	6.27 mV	3.07 mV	3.768	5859 kcps	3.768	3.768	–	3.07	–
PPFHPPPFHP	46.6563%	0,02	-1,75	-1.751	-1.75	-1.751	-1.751	–	263.3	-1.751	-15.8	-9.582 mV	-15.8 mV	1.772	59 kcps	1.772	1.772	–	–	–
HHHHEIEIEIEI	48.37%	0,03	-1,53	-1.534	-1.53	-1.534	-1.534	–	–	–	–	-6.272 mV	-6.91 mV	2.014	103 kcps	2.014	–	–	-6.91	Log10 Count Rate [4, 17]: 2.014
CKWKWQW	34.2%	0,25	-0,6	-0.5951	-0.6	-0.5951	-0.5951	-0.6	–	–	–	16.02 mV	14.7 mV	3.876	7511 kcps	3.876	–	–	14.7	Log10 Count Rate [4, 17]: 3.876; Log10 Count Rate [4, 15]: 3.876
QCKIKIQI	35.27%	0,11	-0,95	-0.9508	-0.95	-0.9508	-0.9508	-0.95	3577	-0.9508	9.52	10.99 mV	9.52 mV	4.094	12427 kcps	4.094	4.094	–	–	–
KIKIQINMWA	49.91%	0,69	-0,16	-0.1642	-0.16	-0.1642	-0.1642	-0.16	–	-0.1642	–	16.43 mV	14.7 mV	3.042	1101 kcps	3.042	3.042	–	14.7	–
